Patent US5882905A, “Thermostable α-L-arabinofuranosidase from Aureobasidium pullulans” (The United States of America as represented by the …, priority 1997, dated 1999)
pKi: −log10 of the molar value. “And” between values parts separate entries of the source, which are not always exact repeats. Equal values may be shown once. “Also recorded” adds a separate entry of the source.

How the values were obtained:
[1] = system: purified α-L-AFase; assay: Substrate specificity and kinetic analysis with aryl-glycosides; format: biochemical, Aureobasidium pullulans; conditions: for Relative initial rate of hydrolysis (percentage of that obtained with pNPαAF): substrate 4 mM, enzyme 28 mU/ml, 15 min reaction
Experimental: (§1) Enzyme assay. αL-arabinofuranosidase (α-L-AFase) activity was assayed in a reaction mixture (1 ml) containing 1 mM p-nitrophenyl α-L-arabinofuranoside (pNPαAF), 50 mM acetate buffer, pH 4.5 and appropriately diluted enzyme solution. After incubation at 50° C. for 30 min, the reaction was stopped by adding ice-cold 0.5M Na2 CO3 (1 ml) and the color formed was measured at 405 nm. One unit (U) of α-L-AFase activity was defined as the amount of enzyme that liberates 1 μmol p-nitrophenol (pNP) per min in the reaction mixture under these assay conditions.
(§2) Other methods. Protein was estimated by the method of Lowry et al. (1951, J. Biol. Chem., 193:265-275) with bovine serum albumin as the standard. Protein in the column effluents was monitored by measuring absorbance at 280 nm. Sodium dodecyl sulfate-polyacrylamide gel electrophoresis (SDS-PAGE) was performed on a 7.5% gel according to Laemmli (1970, Nature, 227:680-685). The molecular weight of the native enzyme was determined by gel filtration on Bio-Gel A-0.5m as described by Andrews (1965, Biochem. J., 91:595-606), using apoferritin (MW 443,000), sweet potato β-amylase (200,000), yeast alcohol dehydrogenase (150,000), bovine serum albumin (66,000) and ovalbumin (45,000) as standard proteins. […] The Km and Vmax values were determined by the double-reciprocal plot method of Lineweaver-Burk (1934, J. Am. Chem. Soc., 56:658-666) using the KINET software program. Arabinose analysis was performed by HPLC (Spectra-Physics, San Jose, Calif.) using an ion moderated partition chromatography column (Aminex HPX-87C). The column was maintained at 85° C., and the sugars were eluted with Milli-Q water at a flow rate of 0.6 ml/min. Peaks were detected by refractive index, and identified and quantified by comparison to retention times of authentic standards (L-arabinose, D-glucose, D-xylose).
Substrate specificity and kinetic analysis. Relative initial rates of hydrolysis of p-nitrophenyl-α-L-arabinopyranoside, p-nitrophenyl-β-D-glucoside, p-nitrophenyl-β-D-glucoside, p-nitrophenyl-β-D-xyloside, p-nitrophenyl-β-D-cellobioside and p-nitrophenyl-β-D-galactoside (4 mM each) by the purified α-L-AFase (28 mU/ml) were 3.4, 2.3, 1.7, 3.1, 0.0, and 0.1%, respectively (expressed as a percentage of that obtained with pNPαAF at pH 4.5 and 75° C., 15 min reaction). The rate dependence of the enzymatic reaction on the pNPαAF concentration at pH 4.5 and 75° C. followed Michaelis-Menten kinetics.

[2] = system: α-L-AFase; assay: Effect of metal ions and reagents on α-L-AFase activity; format: biochemical, Aureobasidium pullulans
Experimental: as §1
Effect of metal ions and reagents.

[3] = system: α-L-AFase; assay: Effect of L-arabinose and other sugars on α-L-AFase activity; format: biochemical, Aureobasidium pullulans
Experimental: as §1
Effect of L-arabinose and other sugars.

[4] = system: Aureobasidium pullulans Y-21792; assay: Effect of carbon source on growth and α-L-arabinofuranosidase production in shake flasks; format: cell-based; conditions: for Growth (A660) / L-arabinosidase (mU/ml culture) Supernatant / L-arabinosidase (mU/ml culture) Whole broth / time of maximum enzyme production, Supernatant (figure in parenthesis) / time of maximum enzyme production, Whole broth (figure in parenthesis): carbon source 1% w/v, 28° C.; for Growth (A660): 96 h, averages of duplicates; for L-arabinosidase (mU/ml culture) Supernatant / L-arabinosidase (mU/ml culture) Whole broth: maximum in time course; for time of maximum enzyme production, Supernatant (figure in parenthesis) / time of maximum enzyme production, Whole broth (figure in parenthesis): time course over 96 h; for share of the whole culture broth α-L-AFase activity that is extracellular: cultures grown on the named carbon source
Experimental: Organism, cultivation and enzyme production. The color variant strain NRRL Y-21792 of A. pullulans (also available as NRRL Y-12974) was obtained from the ARS culture collection, NCAUR, Peoria, Ill. The medium used for seed culture and enzyme production was CCY medium (Slininger et al., 1982, Biotechnol. Bioeng., 23:371-384) with the following composition (g/L): 10 ml of solution A, 10 ml of solution B. 100 ml of solution C, 10 g of yeast extract and 10 g of oat spelt xylan. Solution A was a trace mineral solution having the following ingredients (per L): 1.1 g of CaO, 0.4 g of ZnO, 5.4 g of FeCl3.6 H2 O, 0.25 g of CuSO4. 5H2 O, 0.24 g of CoCl2. 6H2 O, 0.06 g of H3 BO3 and 13 ml of concentrated HCl. Solution B (per L) contained 10.1 g of MgO and 45 ml of concentrated HCl. Solution C (per L) contained 64 g of urea, 12 g of KH2 PO4 and 1.8 g of Na2 HPO4. Oat spelt xylan was sterilized separately. The pH of the medium was adjusted to 5.0 with 1M HCl before inoculation. A 125-ml Erlenmeyer flask containing 50 ml of medium with oat spelt xylan (1%, w/v) as a carbon source was inoculated with a loopful of cells taken from a stock slant and incubated at 28° C. on a rotary shaker (200 rpm) for 2 days. The shake flasks (250-ml Erlenmeyer flask containing 100 ml medium with 1% oat spelt xylan) were inoculated with 2 ml of this culture and cultivated on a rotary shaker (200 rpm) at 28° C. After 3 days, the cells were removed from the culture broth by centrifugation (18,000×g, 20 min). The resulting supernatant solution was used as the crude enzyme preparation.
Medium and enzyme production. The media used for seed culture and enzyme production were prepared as described in Example 1 with the exception of the particular carbon source. The shake flasks (125-ml Erlenmeyer flask containing 50 ml medium) were inoculated with 2 ml of seed culture (prepared using L-arabinose as carbon source) and cultivated on a rotary shaker (200 rpm) at 28° C. for 4 days. At intervals, ~2 ml of the whole culture broth were withdrawn, and the cells and unutilized insoluble substrates were removed from the culture broth by centrifugation (18,000×g, 20 min).
Analytical procedures. α-L-AFase activity was assayed as described in Example 1. Cell growth was monitored by measuring optical density of the culture broth at 660 nm (A660).

[5] = molecular target: α-L-AFase from P. capsulatum; conditions: Filho et al.; read-out: Ki (competitive inhibition); cited from earlier work
[6] = system: α-L-AFase from A. nidulans; conditions: L-Arabinose at 80 mM; Fernandez-Espinar et al.; cited from earlier work
[7] = system: purified α-L-AFase; assay: Hydrolysis of arabinan, debranched arabinan and arabinoxylans (arabinose by HPLC); format: biochemical, Aureobasidium pullulans
Experimental: FIG. 4. Time course of arabinan (1%, w/v) hydrolysis by purified α-L-arabinofuranosidase (0.445 U/ml) from A. pullulans Y-21792 at pH 4.5 and 50° C.
as §2, with “Arabinose analysis was performed by HPLC (Spectra-Physics, San Jose, Calif.) using an ion moderated partition chromatography column (Aminex HPX-87C). The column was maintained at 85° C., and the sugars were eluted with Milli-Q water at a flow rate of 0.6 ml/min.” left out
Hydrolysis of arabinan, debranched arabinan and arabinoxylans. […] Only arabinose was detected in the reaction product. […]

Compound: O=[N+]([O-])c1ccc(O[C@@H]2OC[C@H](O)[C@H](O)[C@H]2O)cc1 [p-nitrophenyl-α-L-arabinopyranoside]
- Relative initial rate of hydrolysis (percentage of that obtained with pNPαAF) ([1]; pH 4.5 and 75° C.): 3.4%

Compound: O=[N+]([O-])c1ccc(O[C@@H]2O[C@H](CO)[C@H](O)[C@H](O)[C@H]2O)cc1 [p-nitrophenyl-β-D-galactoside]
- Relative initial rate of hydrolysis (percentage of that obtained with pNPαAF) ([1]; pH 4.5 and 75° C.): 0.1%

Compound: O[C@H](CS)[C@H](O)CS (racemic) [DTT, dithiothreitol, reference compound]
- effect on enzyme activity ([2]; 10 mM): not affected; also recorded: not inhibited

Compound: OC[C@H](O)C(O)[C@@H](O)CO [L-arabitol]
- inhibition of α-L-AFase activity ([3]; each at 0.11M): did not inhibit
- Growth (A660) [4]: 7.2
- L-arabinosidase (mU/ml culture) Supernatant [4]: 95 mU/ml culture
- L-arabinosidase (mU/ml culture) Whole broth [4]: 441 mU/ml culture
- time of maximum enzyme production, Supernatant (figure in parenthesis) [4]: 48
- time of maximum enzyme production, Whole broth (figure in parenthesis) [4]: 34
- share of the whole culture broth α-L-AFase activity that is extracellular [4]: 22%

Compound: [Mn+2] [Mn^2+]
- requirement of metal ion for activity ([2]; 5 mM): did not require

Compound: O=C[C@H](O)[C@@H](O)[C@H](O)CO [Xylose]
- inhibition of α-L-AFase activity ([3]; each at 0.11M): did not inhibit
- Growth (A660) [4]: 8.0
- L-arabinosidase (mU/ml culture) Supernatant [4]: 88 mU/ml culture
- L-arabinosidase (mU/ml culture) Whole broth [4]: 129 mU/ml culture
- time of maximum enzyme production, Supernatant (figure in parenthesis) [4]: 48
- time of maximum enzyme production, Whole broth (figure in parenthesis) [4]: 48
- share of the whole culture broth α-L-AFase activity that is extracellular [4]: About 70%

Compound: O=C[C@H](O)[C@@H](O)[C@@H](O)[C@H](O)CO [galactose]
- inhibition of α-L-AFase activity ([3]; each at 0.11M): did not inhibit

Compound: O=C(O)c1cc[c]([Hg][Cl])cc1 [pCMB, p-chloromercuribenzoic acid, reference compound]
- effect on enzyme activity ([2]; 0.2 mM): not affected; also recorded: not inhibited

Compound: OC[C@@H](O)[C@H](O)[C@@H](O)CO [xylitol]
- inhibition of α-L-AFase activity ([3]; each at 0.11M): did not inhibit
- Growth (A660) [4]: 9.1
- L-arabinosidase (mU/ml culture) Supernatant [4]: 47 mU/ml culture
- L-arabinosidase (mU/ml culture) Whole broth [4]: 94 mU/ml culture
- time of maximum enzyme production, Supernatant (figure in parenthesis) [4]: 58
- time of maximum enzyme production, Whole broth (figure in parenthesis) [4]: 48

Compound: O=[N+]([O-])c1ccc(O[C@@H]2O[C@H](CO)[C@@H](O)[C@H](O)[C@H]2O)cc1 [p-nitrophenyl-β-D-glucoside]
- Relative initial rate of hydrolysis (percentage of that obtained with pNPαAF) ([1]; pH 4.5 and 75° C.): 2.3% and 1.7%

Compound: O=C[C@H](O)[C@@H](O)[C@@H](O)CO [L-arabinose]
- inhibition of α-L-AFase activity ([3]; up to 1.2M (21.6%)): substantially no inhibition; also recorded: not at all inhibitory; also recorded: not inhibited
- Growth (A660) [4]: 7.6
- L-arabinosidase (mU/ml culture) Supernatant [4]: 199 mU/ml culture
- L-arabinosidase (mU/ml culture) Whole broth [4]: 500 mU/ml culture
- time of maximum enzyme production, Supernatant (figure in parenthesis) [4]: 48
- time of maximum enzyme production, Whole broth (figure in parenthesis) [4]: 58
- share of the whole culture broth α-L-AFase activity that is extracellular [4]: 40%
- pKi [5]: 1.79
- reduction of the hydrolytic activity [6]: 40%

Compound: O=[N+]([O-])c1ccc(O[C@@H]2OC[C@@H](O)[C@H](O)[C@H]2O)cc1 [p-nitrophenyl-β-D-xyloside]
- Relative initial rate of hydrolysis (percentage of that obtained with pNPαAF) ([1]; pH 4.5 and 75° C.): 3.1%

Compound: arabinogalactan
- arabinose detected by HPLC as product of hydrolysis [7]: no arabinose was detected
- Growth (A660) [4]: 3.1
- L-arabinosidase (mU/ml culture) Supernatant [4]: 9 mU/ml culture
- L-arabinosidase (mU/ml culture) Whole broth [4]: 45 mU/ml culture
- time of maximum enzyme production, Supernatant (figure in parenthesis) [4]: 34
- time of maximum enzyme production, Whole broth (figure in parenthesis) [4]: 34

Compound: O=C[C@@H](O)[C@@H](O)[C@H](O)[C@H](O)CO [mannose]
- inhibition of α-L-AFase activity ([3]; each at 0.11M): did not inhibit

Compound: O=C[C@H](O)[C@@H](O)[C@H](O)[C@H](O)CO [glucose]
- inhibition of α-L-AFase activity ([3]; each at 0.11M): did not inhibit

Compound: O=[N+]([O-])c1ccc(O[C@@H]2O[C@H](CO)[C@@H](O[C@@H]3O[C@H](CO)[C@@H](O)[C@H](O)[C@H]3O)[C@H](O)[C@H]2O)cc1 [p-nitrophenyl-β-D-cellobioside]
- Relative initial rate of hydrolysis (percentage of that obtained with pNPαAF) ([1]; pH 4.5 and 75° C.): 0.0%

Compound: [Mg+2] [Mg^2+]
- requirement of metal ion for activity ([2]; 5 mM): did not require

Compound: [Ca+2] [Ca^2+]
- requirement of metal ion for activity ([2]; 5 mM): did not require

Compound: O=[N+]([O-])c1ccc(O[C@@H]2O[C@@H](CO)[C@H](O)[C@H]2O)cc1 [pNPαAF, p-nitrophenyl α-L-arabinofuranoside]
- Vmax ([1]; pH 4.5 and 75° C., reciprocal plot): 6.99 μmol pNP. min^-1.mg^-1 protein
- Km ([1]; pH 4.5 and 75° C., reciprocal plot, read-out: apparent Km): 260 µM
- Substrate inhibition ([1]; tested up to 8 mM): not observed; also recorded: not inhibited

Compound: [Co+2] [Co^2+]
- requirement of metal ion for activity ([2]; 0.5 mM): did not require
